Consider 1 compound from PMC6407917, “Identification of GSK3186899/DDD853651 as a Preclinical Development Candidate for the Treatment of Visceral Leishmaniasis” (Journal of Medicinal Chemistry, 2018).

Targets include ABL2 (Homo sapiens, UniProt P42684); CDC42BPB (Homo sapiens, UniProt Q9Y5S2); CDKL5 (Homo sapiens, UniProt O76039); CSNK1E (Homo sapiens, UniProt P49674); EPHA1 (Homo sapiens, UniProt P21709); EPHB6 (Homo sapiens, UniProt O15197); ERN1 (Homo sapiens, UniProt O75460); GSK3A (Homo sapiens, UniProt P49840); KDR (Homo sapiens, UniProt P35968); MAP2K4 (Homo sapiens, UniProt P45985); MAP3K4 (Homo sapiens, UniProt Q9Y6R4); MAPK1 (Homo sapiens, UniProt P28482); MAPK14 (Homo sapiens, UniProt Q16539); MAPK9 (Homo sapiens, UniProt P45984); MET (Homo sapiens, UniProt P08581); NEK3 (Homo sapiens, UniProt P51956); NTRK1 (Homo sapiens, UniProt P04629); SNRK (Homo sapiens, UniProt Q9NRH2); STK11 (Homo sapiens, UniProt Q15831); STK38 (Homo sapiens, UniProt Q15208); TTK (Homo sapiens, UniProt P33981).

Experiment in all cases: biochemical
What all share (set-up): species or system HEK293/K-562/placenta mixed human extract; Kinobeads chemoproteomic competition binding, quantified by TMT LC-MS/MS, dose response up to 20 uM

Some results are limits rather than exact numbers.

Sequence of NTRK1 (P04629 whole entry): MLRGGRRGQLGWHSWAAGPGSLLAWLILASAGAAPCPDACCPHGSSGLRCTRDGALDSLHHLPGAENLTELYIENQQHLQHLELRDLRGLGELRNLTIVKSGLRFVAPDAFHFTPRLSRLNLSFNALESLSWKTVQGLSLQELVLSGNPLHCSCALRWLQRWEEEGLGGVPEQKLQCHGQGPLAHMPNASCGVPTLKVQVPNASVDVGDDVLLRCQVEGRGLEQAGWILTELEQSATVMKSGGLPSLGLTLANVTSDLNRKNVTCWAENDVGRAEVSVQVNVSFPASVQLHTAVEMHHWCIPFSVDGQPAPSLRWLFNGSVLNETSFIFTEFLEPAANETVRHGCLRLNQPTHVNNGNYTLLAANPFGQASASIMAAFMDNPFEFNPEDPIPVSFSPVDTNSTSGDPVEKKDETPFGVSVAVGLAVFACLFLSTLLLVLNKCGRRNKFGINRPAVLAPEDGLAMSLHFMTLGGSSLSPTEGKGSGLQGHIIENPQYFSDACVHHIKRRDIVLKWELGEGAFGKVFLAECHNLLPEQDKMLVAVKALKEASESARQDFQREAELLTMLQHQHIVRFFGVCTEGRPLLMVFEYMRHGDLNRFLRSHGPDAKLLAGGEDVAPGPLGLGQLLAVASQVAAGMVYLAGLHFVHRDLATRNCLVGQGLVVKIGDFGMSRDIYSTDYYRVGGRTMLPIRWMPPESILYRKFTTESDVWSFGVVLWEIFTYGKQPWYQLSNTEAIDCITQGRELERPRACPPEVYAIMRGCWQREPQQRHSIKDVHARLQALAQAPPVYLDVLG
Sequence of EPHA1 (P21709 whole entry): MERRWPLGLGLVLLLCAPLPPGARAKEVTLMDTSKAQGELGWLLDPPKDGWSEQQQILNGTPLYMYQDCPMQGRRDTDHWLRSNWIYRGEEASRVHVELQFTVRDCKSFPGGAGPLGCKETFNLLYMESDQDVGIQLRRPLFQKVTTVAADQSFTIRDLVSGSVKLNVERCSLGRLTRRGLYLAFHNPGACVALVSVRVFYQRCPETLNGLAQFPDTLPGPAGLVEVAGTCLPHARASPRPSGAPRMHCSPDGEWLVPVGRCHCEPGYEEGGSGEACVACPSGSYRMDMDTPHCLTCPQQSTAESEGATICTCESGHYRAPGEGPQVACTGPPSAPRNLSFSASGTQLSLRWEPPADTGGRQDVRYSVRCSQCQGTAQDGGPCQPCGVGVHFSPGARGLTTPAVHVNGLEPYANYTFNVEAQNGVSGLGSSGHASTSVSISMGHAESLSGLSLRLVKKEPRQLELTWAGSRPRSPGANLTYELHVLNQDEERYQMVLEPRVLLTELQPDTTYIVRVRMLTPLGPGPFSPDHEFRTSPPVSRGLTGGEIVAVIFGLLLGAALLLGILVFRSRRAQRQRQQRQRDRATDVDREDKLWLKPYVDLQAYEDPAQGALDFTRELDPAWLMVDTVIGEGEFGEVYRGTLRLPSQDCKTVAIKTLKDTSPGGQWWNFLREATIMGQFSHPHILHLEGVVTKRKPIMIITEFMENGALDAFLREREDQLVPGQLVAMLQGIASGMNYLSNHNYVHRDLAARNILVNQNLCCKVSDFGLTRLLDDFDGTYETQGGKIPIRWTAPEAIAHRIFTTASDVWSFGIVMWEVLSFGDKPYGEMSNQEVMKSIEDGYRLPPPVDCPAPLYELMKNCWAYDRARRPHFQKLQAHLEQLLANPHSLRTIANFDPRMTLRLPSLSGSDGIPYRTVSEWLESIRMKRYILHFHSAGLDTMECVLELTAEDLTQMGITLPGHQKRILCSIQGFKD
Sequence of GSK3A (P49840 whole entry): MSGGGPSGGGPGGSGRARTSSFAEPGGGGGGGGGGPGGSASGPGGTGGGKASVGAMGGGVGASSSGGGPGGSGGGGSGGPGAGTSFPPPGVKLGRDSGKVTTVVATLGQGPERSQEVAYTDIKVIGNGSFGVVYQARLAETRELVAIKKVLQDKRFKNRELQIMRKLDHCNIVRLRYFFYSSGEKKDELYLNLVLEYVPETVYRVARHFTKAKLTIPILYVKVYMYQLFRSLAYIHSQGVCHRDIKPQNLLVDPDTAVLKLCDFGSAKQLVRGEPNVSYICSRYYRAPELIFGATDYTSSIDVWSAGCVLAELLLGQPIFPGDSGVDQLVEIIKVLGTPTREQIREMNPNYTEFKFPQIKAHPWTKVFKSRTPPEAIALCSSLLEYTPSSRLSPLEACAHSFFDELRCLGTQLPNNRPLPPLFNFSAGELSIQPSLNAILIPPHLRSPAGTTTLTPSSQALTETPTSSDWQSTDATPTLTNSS
Sequence of ABL2 (P42684 whole entry): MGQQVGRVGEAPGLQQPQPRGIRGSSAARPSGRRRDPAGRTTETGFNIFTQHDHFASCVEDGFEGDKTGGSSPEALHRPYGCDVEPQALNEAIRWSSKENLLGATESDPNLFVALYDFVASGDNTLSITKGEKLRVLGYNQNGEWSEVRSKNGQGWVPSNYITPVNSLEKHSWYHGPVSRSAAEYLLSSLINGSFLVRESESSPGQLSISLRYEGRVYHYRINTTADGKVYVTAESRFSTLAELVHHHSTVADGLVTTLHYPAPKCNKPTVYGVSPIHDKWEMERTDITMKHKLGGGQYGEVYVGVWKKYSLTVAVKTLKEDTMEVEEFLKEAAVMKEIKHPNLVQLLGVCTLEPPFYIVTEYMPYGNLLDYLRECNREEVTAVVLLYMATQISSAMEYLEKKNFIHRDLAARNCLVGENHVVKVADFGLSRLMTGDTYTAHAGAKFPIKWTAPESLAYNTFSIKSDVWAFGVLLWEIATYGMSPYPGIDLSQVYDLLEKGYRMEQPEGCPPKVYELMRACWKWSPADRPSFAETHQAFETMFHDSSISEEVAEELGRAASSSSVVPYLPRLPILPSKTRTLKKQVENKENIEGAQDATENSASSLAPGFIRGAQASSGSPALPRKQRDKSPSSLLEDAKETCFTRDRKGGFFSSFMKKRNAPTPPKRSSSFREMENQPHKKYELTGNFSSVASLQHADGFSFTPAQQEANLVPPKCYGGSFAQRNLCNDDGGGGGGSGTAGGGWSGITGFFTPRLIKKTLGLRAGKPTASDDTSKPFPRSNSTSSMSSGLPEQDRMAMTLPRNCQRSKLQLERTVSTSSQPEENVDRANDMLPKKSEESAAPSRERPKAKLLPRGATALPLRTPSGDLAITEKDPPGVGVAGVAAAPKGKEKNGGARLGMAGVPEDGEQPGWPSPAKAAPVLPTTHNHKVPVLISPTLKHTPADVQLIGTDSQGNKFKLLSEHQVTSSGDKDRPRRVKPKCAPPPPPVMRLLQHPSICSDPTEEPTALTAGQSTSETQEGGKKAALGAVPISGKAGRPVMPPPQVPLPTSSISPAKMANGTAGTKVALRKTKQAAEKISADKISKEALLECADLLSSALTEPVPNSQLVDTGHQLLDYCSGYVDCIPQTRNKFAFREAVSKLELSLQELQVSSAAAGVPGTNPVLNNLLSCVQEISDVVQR
Sequence of MAPK14 (Q16539 whole entry): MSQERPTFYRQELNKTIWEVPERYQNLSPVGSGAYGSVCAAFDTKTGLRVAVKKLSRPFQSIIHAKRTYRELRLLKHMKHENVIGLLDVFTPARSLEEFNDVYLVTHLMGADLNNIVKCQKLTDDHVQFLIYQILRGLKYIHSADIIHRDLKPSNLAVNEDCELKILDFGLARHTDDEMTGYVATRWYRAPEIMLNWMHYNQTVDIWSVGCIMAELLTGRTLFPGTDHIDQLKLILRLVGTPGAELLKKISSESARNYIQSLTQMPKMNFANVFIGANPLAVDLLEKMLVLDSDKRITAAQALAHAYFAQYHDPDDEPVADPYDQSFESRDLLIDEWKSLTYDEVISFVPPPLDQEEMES
Sequence of MAPK9 (P45984 whole entry): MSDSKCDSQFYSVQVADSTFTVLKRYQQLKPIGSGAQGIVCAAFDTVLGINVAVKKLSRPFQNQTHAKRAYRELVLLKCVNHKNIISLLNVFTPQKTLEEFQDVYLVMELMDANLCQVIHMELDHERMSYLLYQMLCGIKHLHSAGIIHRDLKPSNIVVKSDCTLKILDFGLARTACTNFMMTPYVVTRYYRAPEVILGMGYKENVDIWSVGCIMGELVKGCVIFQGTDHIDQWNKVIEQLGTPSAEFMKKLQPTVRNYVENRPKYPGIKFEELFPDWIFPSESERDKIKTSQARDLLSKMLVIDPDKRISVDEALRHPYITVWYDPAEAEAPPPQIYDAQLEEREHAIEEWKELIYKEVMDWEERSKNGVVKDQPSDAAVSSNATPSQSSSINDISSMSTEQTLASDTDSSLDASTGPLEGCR
Sequence of TTK (P33981 whole entry): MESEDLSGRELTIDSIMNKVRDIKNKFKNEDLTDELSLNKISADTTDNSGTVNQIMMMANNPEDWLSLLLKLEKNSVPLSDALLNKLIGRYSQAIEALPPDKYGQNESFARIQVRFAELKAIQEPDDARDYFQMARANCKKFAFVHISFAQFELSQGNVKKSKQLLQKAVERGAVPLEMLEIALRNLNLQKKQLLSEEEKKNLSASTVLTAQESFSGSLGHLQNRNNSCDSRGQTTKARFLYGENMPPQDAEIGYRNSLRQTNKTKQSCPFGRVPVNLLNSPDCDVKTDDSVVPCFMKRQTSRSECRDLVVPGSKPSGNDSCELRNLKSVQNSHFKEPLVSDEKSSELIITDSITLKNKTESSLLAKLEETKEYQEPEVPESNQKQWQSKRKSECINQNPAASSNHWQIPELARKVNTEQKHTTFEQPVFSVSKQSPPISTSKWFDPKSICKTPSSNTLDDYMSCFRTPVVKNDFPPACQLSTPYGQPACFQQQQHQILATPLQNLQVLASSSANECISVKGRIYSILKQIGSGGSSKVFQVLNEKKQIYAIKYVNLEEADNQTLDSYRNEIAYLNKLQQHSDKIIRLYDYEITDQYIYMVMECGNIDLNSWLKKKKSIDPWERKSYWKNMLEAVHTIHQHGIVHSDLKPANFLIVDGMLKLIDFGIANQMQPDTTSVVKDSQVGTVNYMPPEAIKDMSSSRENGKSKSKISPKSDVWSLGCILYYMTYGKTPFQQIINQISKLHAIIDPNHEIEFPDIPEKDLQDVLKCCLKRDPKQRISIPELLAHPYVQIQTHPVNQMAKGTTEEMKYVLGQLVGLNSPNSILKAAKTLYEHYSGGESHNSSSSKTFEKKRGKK

For the compound `COc1nc(N[C@H]2CC[C@H](NS(=O)(=O)CC(C)C)CC2)nc2[nH]nc(N3CCOC[C@H]3C)c12` [compound 39, N-(trans-4-((4-Methoxy-3-((R)-3-methylmorpholino)-1H-pyrazolo[3,4-d]pyrimidin-6-yl)amino)cyclohexyl)-2-methylpropane-1-sulfonamide], the IC50 (usually the midpoint of a concentration-inhibition curve) at ABL2 is ≥ 20 µM; on CDC42BPB, ≥ 20 µM; on CDKL5, ≥ 20 µM; on CSNK1E, ≥ 20 µM; at EPHA1, ≥ 20 µM; at EPHB6, 3.3 µM. In addition, the IC50 on ERN1, at GSK3A, at KDR, at MAP2K4, at MAP3K4 and on MAPK1 was ≥ 20 µM throughout. Moreover, the IC50 at MAPK14, at MAPK9, at MET, on NEK3, at NTRK1 and at SNRK was ≥ 20 µM in each case. In addition, the IC50 at STK11, at STK38 and on TTK was ≥ 20 µM in each case.
